Laboratory results taken from PubChem BioAssay (NCI).
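Each compound was tested at five concentrations against cells in 96-well plates for 48 hours. TGI is the concentration that stops growth completely.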

Key:
Test in all cases: NCI tumour cell line growth inhibition, 48 h
[1] = test system: 786-0 renal
[2] = test system: A498 renal
[3] = test system: A549 NSCLC
[4] = test system: ACHN renal
[5] = test system: BT-549 breast
[6] = test system: CAKI-1 renal
[7] = test system: CCRF-CEM leukemia
[8] = test system: COLO 205 colon
[9] = test system: DU-145 prostate
[10] = test system: EKVX NSCLC
[11] = test system: HCT-116 colon
[12] = test system: HCT-15 colon
[13] = test system: HL-60(TB) leukemia
[14] = test system: HOP-62 NSCLC
[15] = test system: HOP-92 NSCLC
[16] = test system: HS 578T breast
[17] = test system: HT29 colon
[18] = test system: IGROV1 ovarian
[19] = test system: K-562 leukemia
[20] = test system: LOX IMVI melanoma
[21] = test system: M14 melanoma
[22] = test system: MALME-3M melanoma
[23] = test system: MCF7 breast
[24] = test system: MDA-MB-231 breast
[25] = test system: MDA-MB-435
[26] = test system: MOLT-4 leukemia
[27] = test system: NCI-H226 lung
[28] = test system: NCI-H23 lung
[29] = test system: NCI-H522 lung
[30] = test system: NCI/ADR-RES ovarian
[31] = test system: OVCAR-3 ovarian
[32] = test system: OVCAR-4 ovarian
[33] = test system: OVCAR-5 ovarian
[34] = test system: OVCAR-8 ovarian
[35] = test system: PC-3 prostate
[36] = test system: RPMI-8226 leukemia
[37] = test system: RXF 393 renal
[38] = test system: SF-268 CNS
[39] = test system: SF-295 CNS
[40] = test system: SF-539 CNS
[41] = test system: SK-MEL-2 melanoma
[42] = test system: SK-MEL-5 melanoma
[43] = test system: SK-OV-3 ovarian
[44] = test system: SN12C renal
[45] = test system: SNB-19 CNS
[46] = test system: SNB-75 CNS
[47] = test system: SR leukemia
[48] = test system: T-47D breast
[49] = test system: TK-10 renal
[50] = test system: U251 CNS
[51] = test system: UACC-257 melanoma
[52] = test system: UACC-62 melanoma
[53] = test system: UO-31 renal

Measured: TGI

Cc1cc(NS(=O)(=O)c2ccc(N=[N+]([O-])c3ccc(S(=O)(=O)Nc4cc(C)on4)cc3)cc2)no1
> 100 µM: [1] | [2] | [3] | [4] | [5] | [6] | [7] | [8] | [9] | [10] | [11] | [12] | [13] | [14] | [15] | [16] | [17] | [18] | [19] | [20] | [21] | [22] | [23] | [24] | [25] | [26] | [27] | [28] | [29] | [30] | [31] | [32] | [33] | [34] | [35] | [36] | [37] | [38] | [39] | [40] | [41] | [42] | [43] | [44] | [45] | [46] | [47] | [48] | [49] | [50] | [51] | [52] | [53]
